Experimental data as given in PubChem BioAssay (NCI).
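Five compound concentrations were applied to cells in 96-well plates for 48 hours; endpoints were derived by simple linear interpolation of the resulting dose-response curve. The concentration for 50% growth inhibition is given as GI50. TGI marks complete inhibition of growth.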

Legend:
Experiment in all cases: NCI tumour cell line growth inhibition, 48 h
[1] = system: TK-10 renal
[2] = system: HS 578T breast
[3] = system: NCI-H226 lung
[4] = system: SK-MEL-28 melanoma
[5] = system: SF-268 CNS
[6] = system: CCRF-CEM leukemia
[7] = system: K-562 leukemia
[8] = system: MDA-MB-231 breast
[9] = system: SK-MEL-2 melanoma
[10] = system: HCC-2998 colon
[11] = system: UO-31 renal
[12] = system: MALME-3M melanoma
[13] = system: HOP-62 NSCLC
[14] = system: SF-295 CNS
[15] = system: KM12 colon
[16] = system: SR leukemia
[17] = system: HL-60(TB) leukemia
[18] = system: MDA-MB-435
[19] = system: PC-3 prostate
[20] = system: SK-OV-3 ovarian
[21] = system: SF-539 CNS
[22] = system: A498 renal
[23] = system: U251 CNS
[24] = system: SW-620 colon
[25] = system: OVCAR-5 ovarian
[26] = system: HCT-15 colon
[27] = system: NCI-H522 lung
[28] = system: SNB-19 CNS
[29] = system: HOP-92 NSCLC
[30] = system: HCT-116 colon
[31] = system: DU-145 prostate
[32] = system: M14 melanoma
[33] = system: NCI/ADR-RES ovarian
[34] = system: HT29 colon
[35] = system: EKVX NSCLC
[36] = system: BT-549 breast
[37] = system: RXF 393 renal
[38] = system: T-47D breast
[39] = system: NCI-H460 lung
[40] = system: COLO 205 colon
[41] = system: CAKI-1 renal
[42] = system: A549 NSCLC
[43] = system: UACC-257 melanoma
[44] = system: SNB-75 CNS
[45] = system: IGROV1 ovarian
[46] = system: OVCAR-4 ovarian
[47] = system: OVCAR-8 ovarian
[48] = system: MOLT-4 leukemia
[49] = system: UACC-62 melanoma
[50] = system: NCI-H23 lung
[51] = system: OVCAR-3 ovarian
[52] = system: ACHN renal
[53] = system: MCF7 breast
[54] = system: SN12C renal

`Cc1cc(/C=C\c2ccc3ccccc3[n+]2C)c(O)c2ncccc12` gave a GI50 [1] of 814 nM, a TGI [1] of 6540 nM and a GI50 [2] of 681 nM. It also gave a TGI [2] of 7500 nM, a GI50 [3] of 1240 nM and a TGI [3] of 3170 nM. For the same molecule, the GI50 [4] was 517 nM, the TGI [4] was 4390 nM and the GI50 [5] was 486 nM. It also gave a TGI [5] of 8630 nM, a GI50 [6] of 331 nM and a TGI [6] of over 100000 nM. For the same molecule, the GI50 [7] was 169 nM, the TGI [7] was over 100000 nM and the GI50 [8] was 259 nM. The TGI [8] was 1900 nM, the GI50 [9] was 3030 nM and the TGI [9] was over 100000 nM. The GI50 [10] was 112 nM, the TGI [10] was 593 nM and the GI50 [11] was 405 nM. It also gave a TGI [11] of 3270 nM, a GI50 [12] of 1170 nM and a TGI [12] of 5160 nM. It also gave a GI50 [13] of 497 nM, a TGI [13] of 8030 nM and a GI50 [14] of 82.7 nM. For the same molecule, the TGI [14] was 1440 nM, the GI50 [15] was 182 nM and the TGI [15] was 1340 nM. It also gave a GI50 [16] of 168 nM, a TGI [16] of over 100000 nM and a GI50 [17] of 125 nM. For the same molecule, the GI50 [18] was 87.5 nM, the TGI [18] was 523 nM and the GI50 [19] was 855 nM. For the same molecule, the TGI [19] was 7580 nM, the GI50 [20] was 1680 nM and the TGI [20] was 4840 nM. For the same molecule, the GI50 [21] was 202 nM, the TGI [21] was 909 nM and the GI50 [22] was 180 nM. The TGI [22] was 3010 nM, the GI50 [23] was 537 nM and the TGI [23] was over 100000 nM. The GI50 [24] was 196 nM, the TGI [24] was 2150 nM and the GI50 [25] was 829 nM. The TGI [25] was 6190 nM, the GI50 [26] was 1520 nM and the TGI [26] was 17800 nM. The GI50 [27] was 1050 nM, the TGI [27] was 5020 nM and the GI50 [28] was 494 nM. The TGI [28] was 27400 nM, the GI50 [29] was 99.5 nM and the TGI [29] was 4480 nM. The GI50 [30] was 116 nM, the TGI [30] was 1410 nM and the GI50 [31] was 902 nM. It also gave a TGI [31] of 4220 nM, a GI50 [32] of 167 nM and a TGI [32] of 1110 nM. It also gave a GI50 [33] of 1100 nM, a TGI [33] of 13600 nM and a GI50 [34] of 218 nM. It also gave a TGI [34] of 21700 nM, a GI50 [35] of 671 nM and a TGI [35] of 7820 nM. It also gave a GI50 [36] of 260 nM, a TGI [36] of 4630 nM and a GI50 [37] of 1550 nM. It also gave a TGI [37] of 6030 nM, a GI50 [38] of 835 nM and a TGI [38] of 5680 nM. It also gave a GI50 [39] of 224 nM, a TGI [39] of 1820 nM and a GI50 [40] of 448 nM. The TGI [40] was 4580 nM, the GI50 [41] was 816 nM and the TGI [41] was 3510 nM. The GI50 [42] was 564 nM, the TGI [42] was 13600 nM and the GI50 [43] was 1540 nM. The TGI [43] was 6590 nM, the GI50 [44] was 1830 nM and the TGI [44] was 7240 nM. The GI50 [45] was 413 nM, the TGI [45] was 2380 nM and the GI50 [46] was 323 nM. It also gave a TGI [46] of 1730 nM, a GI50 [47] of 399 nM and a TGI [47] of over 100000 nM. It also gave a GI50 [48] of 400 nM, a TGI [48] of over 100000 nM and a GI50 [49] of 207 nM. For the same molecule, the TGI [49] was 2620 nM, the GI50 [50] was 276 nM and the TGI [50] was 3250 nM. It also gave a GI50 [51] of 176 nM, a TGI [51] of 569 nM and a GI50 [52] of 584 nM. It also gave a TGI [52] of 2150 nM, a GI50 [53] of 283 nM and a GI50 [54] of 375 nM. The TGI [54] was 8950 nM.
